Test results taken from PMC6774960, “Design, synthesis and biological evaluation of a series of new resveratrol analogues as potential anti-cancer agents” (Royal Society Open Science, 2019).

Columns and labels:
HeLa cells = experiment: MTT anti-proliferation assay, HeLa; format: cell-based, human; settings: Homo sapiens, HeLa, 24 h, average of three determinations
Experimental: (§1) The 22 synthesized resveratrol compounds were evaluated for anti-proliferative activities against three human cancer cell lines, including HepG2, A549 and HeLa cells, using 3-[4,5-dimethylthiazol-2-yl]-2,5 diphenyl tetrazolium bromide (MTT) assays. Paclitaxel, a well-known tubulin inhibitor, was used as a positive control.
(§2) The anti-proliferative and cytotoxicity activity was determined using MTT assay. Human cervical carcinoma HeLa cells, human hepatocellular carcinoma HepG2 cells, human lung carcinoma A549 cells were representative in the anti-proliferation assay, which were obtained from the Shanghai Institute of Cell Biology (Shanghai, China). Normal African green monkey kidney Vero cells were a gift from Dr Xiumiao He at Guangxi University for Nationalities. Normal human hepatocytes LO2 cells were a gift from Dr Xing Lin at Guangxi Medical University. The HepG2, Hela, LO2 and Vero cells were cultured in Dulbecco's modified Eagle's medium (DMEM, Gibco) and the A549 cells were cultured in RPMI1640 (Gibco), both media were supplemented with 10% fetal calf serum and antibiotics (100 IU ml^−1 penicillin, 100 IU ml^−1 streptomycin; Amresco).
After 24 h, cell morphology was observed using a light microscope, and then 20 µl of MTT solution (5 mg ml^−1) was added to the well and incubated for 4 h, then cell survival was determined by measuring the optical density (OD) absorbance at a wavelength of 570 nm using an ELISA microplate reader. […] Cisplatin and paclitaxel were used as positive control drugs.

HepG2 cells = experiment: MTT anti-proliferation assay, HepG2; format: cell-based, human; settings: Homo sapiens, HepG2, 24 h, average of three determinations
Experimental: as §1, with “control. […] Therefore, the inhibitory activity of the compounds depended not only on the 2-position substitution of acrylic acid, but also on the 3-position substitution of acrylic acid.” for “control.”
as §2
(§3) Cells were seeded in 96-well microtiter plates at a density of 1 × 10^4 cells well^−1 and incubated with different concentrations of compound (6.25, 12.50, 25.00, 50.00 to 100.00 µM), cisplatin and paclitaxel in RPMI-1640 or DMEM at 37°C with 5% CO2. After 24 h, cell morphology was observed using a light microscope, and then 20 µl of MTT solution (5 mg ml^−1) was added to the well and incubated for 4 h, then cell survival was determined by measuring the optical density (OD) absorbance at a wavelength of 570 nm using an ELISA microplate reader. The inhibition rate (IR) following each compound treatment was determined by the following equation: IR (%) = (1 − ODexp/ODcon) × 100%, where ODexp and ODcon are the OD of the treated and untreated cells, respectively. Cisplatin and paclitaxel were used as positive control drugs.

[1] = MTT cytotoxicity test, LO2; format: cell-based, human; settings: human, LO2 cells (normal human hepatocytes), average of three determinations
Experimental: (§4) Vero cells are non-tumorigenic cell lines and are important raw materials as the research and production of biological products. Vero cells show low tumorigenicity and had been approved for use in the production of human virus vaccines. Thus, Vero cells were chosen as a control for cytotoxicity. All compounds were evaluated for their cell toxicity against Vero and normal human hepatocytes cells line (LO2) using MTT assays.
as §2, §3

[2] = MTT cytotoxicity test, Vero; format: cell-based, African green monkey; settings: African green monkey, Vero cells (normal African green monkey kidney), average of three determinations
Experimental: as §4, §2, §3

A549 cells = experiment: MTT anti-proliferation assay, A549; format: cell-based, human; settings: Homo sapiens, A549, 24 h, average of three determinations
Experimental: as §1, with “control. […] Therefore, the inhibitory activity of the compounds depended not only on the 2-position substitution of acrylic acid, but also on the 3-position substitution of acrylic acid.” for “control.”
as §2, §3

IC50 (HeLa cells)	IC50 (HepG2 cells)	IC50 (A549 cells)	melting point	SMILES	CC50 at 24 h [1]	CC50 at 24 h [2]
27 ± 2 µM	50 ± 4 µM	34 ± 2 µM	233 to 235 °C	COc1cc(C(=Cc2ccc(Cl)c(Cl)c2)C(=O)O)cc(OC)c1OC [compound a, 3-(3,4-dichlorophenyl)-2-(3,4,5-trimethoxyphenyl) acrylic acid]	27 ± 1 µM	28.2 ± 0.5 µM
32 ± 3 µM	74 ± 4 µM	46 ± 3 µM	217 to 218 °C	COc1cc(C(=Cc2c(Cl)cccc2Cl)C(=O)O)cc(OC)c1OC [compound b, 3-(2,6-dichlorophenyl)-2-(3,4,5-trimethoxyphenyl) acrylic acid]	92 ± 2 µM	> 100 µM
46 ± 3 µM	30 ± 3 µM	30 ± 1 µM	228 °C	COc1cc(C(=Cc2ccc(Cl)cc2Cl)C(=O)O)cc(OC)c1OC [compound c, 3-(2,4-dichlorophenyl)-2-(3,4,5-trimethoxyphenyl) acrylic acid]	> 100 µM	71 ± 2 µM
62 ± 3 µM	> 100 µM	> 100 µM	247 to 248 °C	COc1cc(C(=Cc2cc([N+](=O)[O-])ccc2Cl)C(=O)O)cc(OC)c1OC [compound d, 3-(2-chloro-5-nitrophenyl)-2-(3,4,5-trimethoxyphenyl) acrylic acid]	93 ± 2 µM	> 100 µM
61 ± 3 µM	> 100 µM	> 100 µM	164 °C	COc1cc(C(=Cc2ccccc2OC(F)(F)F)C(=O)O)cc(OC)c1OC [compound e, 3-(2-(trifluoromethoxy)phenyl)-2-(3,4,5-trimethoxyphenyl) acrylic acid]	> 100 µM	82 ± 2 µM
20 ± 3 µM	18.7 ± 0.9 µM	19 ± 2 µM	208 °C	COc1cc(C(=Cc2ccc(OC(F)(F)F)cc2)C(=O)O)cc(OC)c1OC [compound f, 3-(4-(trifluoromethoxy)phenyl)-2-(3,4,5-trimethoxyphenyl) acrylic acid]	> 100 µM	> 100 µM
73 ± 5 µM	24 ± 2 µM	14 ± 4 µM	156 to 157 °C	COc1cc(C(=Cc2cccc(OC(F)(F)F)c2)C(=O)O)cc(OC)c1OC [compound g, 3-(3-(trifluoromethoxy)phenyl)-2-(3,4,5-trimethoxyphenyl) acrylic acid]	> 100 µM	> 100 µM
26 ± 4 µM	47 ± 4 µM	32 ± 5 µM	162 to 164 °C	COc1cc(C(=Cc2cccc(C(F)(F)F)c2)C(=O)O)cc(OC)c1OC [compound h, 3-(3-(trifluoromethyl)phenyl)-2-(3,4,5-trimethoxyphenyl) acrylic acid]	75 ± 4 µM	> 100 µM
41 ± 4 µM	42 ± 2 µM	32 ± 2 µM	160 to 162 °C	COc1cc(C(=Cc2ccccc2C(F)(F)F)C(=O)O)cc(OC)c1OC [compound i, 3-(2-(trifluoromethyl)phenyl)-2-(3,4,5-trimethoxyphenyl) acrylic acid]	> 100 µM	> 100 µM
19 ± 2 µM	56.66 ± 0.02 µM	18 ± 3 µM	259 °C	COc1cc(C(=Cc2ccc(C(F)(F)F)cc2)C(=O)O)cc(OC)c1OC [compound j, 3-(4-(trifluoromethyl)phenyl)-2-(3,4,5-trimethoxyphenyl) acrylic acid]	> 100 µM	> 100 µM
> 100 µM	100 ± 0.8 µM	> 100 µM	258 °C	COc1cc(C(=Cc2cc(C(F)(F)F)ccc2Cl)C(=O)O)cc(OC)c1OC [compound k, 3-(2-chloro-5-(trifluoromethyl)phenyl)-2-(3,4,5-trimethoxyphenyl) acrylic acid]	88 ± 2 µM	71 ± 2 µM
89 ± 4 µM	> 100 µM	> 100 µM	171 to 173 °C	COc1cc(C(=Cc2ccc(OC)c(OC)c2Cl)C(=O)O)cc(OC)c1OC [compound l, 3-(2-chloro-3,4-dimethoxyphenyl)-2-(3,4,5-trimethoxyphenyl) acrylic acid]	64 ± 2 µM	> 100 µM
60 ± 1 µM	> 100 µM	34 ± 2 µM	167 to 169 °C	COc1cc(C(=Cc2cc(Cl)ccc2[N+](=O)[O-])C(=O)O)cc(OC)c1OC [compound m, 3-(5-chloro-2-nitrophenyl)-2-(3,4,5-trimethoxyphenyl) acrylic acid]	> 100 µM	> 100 µM
20 ± 2 µM	79 ± 4 µM	27.2 ± 0.9 µM	203 to 204 °C	COc1cc(C(=Cc2c(Cl)ccc(Cl)c2Cl)C(=O)O)cc(OC)c1OC [compound n, 3-(2,3,6-trichlorophenyl)-2-(3,4,5-trimethoxyphenyl) acrylic acid]	77 ± 1 µM	63 ± 2 µM
10 ± 2 µM	48 ± 5 µM	21.3 ± 0.7 µM	319 to 320 °C	COc1ccc(C(=Cc2c(Cl)cccc2Cl)C(=O)O)cc1 [compound o, 3-(2,6-dichlorophenyl)-2-(4-methoxyphenyl) acrylic acid]	> 100 µM	> 100 µM
5.1 ± 0.8 µM	7.7 ± 0.3 µM	14 ± 2 µM	159 to 160 °C	COc1ccc(C(=Cc2ccc(OC(F)(F)F)cc2)C(=O)O)cc1 [compound p, 2-(4-methoxyphenyl)-3-(4-(trifluoromethoxy)phenyl) acrylic acid]	84 ± 2 µM	93 ± 3 µM
14 ± 1 µM	19 ± 2 µM	16 ± 3 µM	192 to 194 °C	COc1ccc(C(=Cc2cccc(C(F)(F)F)c2)C(=O)O)cc1 [compound q, 2-(4-methoxyphenyl)-3-(3-(trifluoromethyl)phenyl) acrylic acid]	98 ± 2 µM	> 100 µM
24 ± 2 µM	93 ± 3 µM	> 100 µM	202 °C	COc1ccc(C(=Cc2ccc(OC)c(OC)c2Cl)C(=O)O)cc1 [compound t, 3-(2-chloro-3,4-dimethoxyphenyl)-2-(4-methoxyphenyl) acrylic acid]	87 ± 2 µM	85 ± 1 µM
> 100 µM	> 100 µM	> 100 µM	174 °C	COc1ccc(C(=Cc2c(Cl)ccc(Cl)c2Cl)C(=O)O)cc1 [compound u, 2-(4-methoxyphenyl)-3-(2,3,6-trichlorophenyl) acrylic acid]	35 ± 1 µM	38.6 ± 0.7 µM
51.25 ± 0.01 µM	100 ± 1 µM	61 ± 3 µM	198 to 200 °C	COc1ccc(C=C(C(=O)O)c2cc(C)cc(C)c2)cc1 [compound v, 2-(3,5-dimethylphenyl)-3-(4-methoxyphenyl) acrylic acid]	96 ± 6 µM	> 100 µM

SMILES	IC50 (HeLa cells)	IC50 (HepG2 cells)	IC50 (A549 cells)	melting point	CC50 at 24 h [1]	CC50 at 24 h [2]
CC(=O)O[C@H]1C(=O)[C@@]2(C)[C@H]([C@H](OC(=O)c3ccccc3)[C@]3(O)C[C@H](OC(=O)[C@H](O)[C@@H](NC(=O)c4ccccc4)c4ccccc4)C(C)=C1C3(C)C)[C@]1(OC(C)=O)CO[C@@H]1C[C@@H]2O [paclitaxel, reference compound]	0.7 ± 0.1 µM	0.39 ± 0.03 µM	0.17 ± 0.03 µM	–	> 100 µM	98 ± 1 µM
